We go through 38 compounds from patent publication US7897619B2, “Heterocyclic modulators of PKB” (Amgen Inc., priority 2007, dated 2011).

This test concerns the target PKBα (Homo sapiens, UniProt P31749). Kind of test: PKB kinase assay (P33-labeled ATP, synthetic peptide substrate, filter plate). Type of test: biochemical. To be noted: PKBα enzyme (full length or kinase domain with pleckstrin domain deleted). The text has this: The kinase assay for evaluating PKB activity comprises active PKB enzymes, a PKB specific substrate, and P^33-labeled ATP. Two forms of PKBα enzymes were used, the full length PKBα and a kinase domain of PKBα with pleckstrin domain (amino acids 1-117) deleted. Both PKB enzymes were obtained from Upstate cell signaling solutions (Cat.# 14-276 and 14-341). The PKB substrate used is a synthetic peptide (ARKRERTYSFGHHA (SEQ ID NO: 1)) as described in Obata et al., J. Biol. Chem. 275 (46), 36108-36115 (2000). The phosphorylated substrate was captured by a phosphocellulose membrane filter plate (MILLIPORE) and measured by a Wallac Microbeta liquid scintillation counter (Perkin Elmer). Table 1 provides the IC50 values obtained for each of the examples with respect to PKBα.

Sequence of PKBα (P31749 118-480 limits assumed): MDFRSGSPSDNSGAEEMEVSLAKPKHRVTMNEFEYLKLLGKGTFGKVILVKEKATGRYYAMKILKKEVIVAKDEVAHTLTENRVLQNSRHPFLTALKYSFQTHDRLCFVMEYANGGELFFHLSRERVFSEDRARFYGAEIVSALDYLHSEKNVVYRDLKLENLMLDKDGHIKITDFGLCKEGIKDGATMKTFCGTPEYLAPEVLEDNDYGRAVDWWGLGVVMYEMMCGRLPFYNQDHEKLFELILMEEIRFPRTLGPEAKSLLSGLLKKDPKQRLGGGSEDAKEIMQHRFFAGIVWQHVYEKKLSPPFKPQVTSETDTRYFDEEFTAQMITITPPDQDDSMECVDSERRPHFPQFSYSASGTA

Consider `N[C@H](CNc1nnc(-c2ccc3cnccc3c2)o1)Cc1ccc(C(F)(F)F)cc1` [Example 1, N-((S)-2-amino-3-(4-(trifluoromethyl)phenyl)propyl)-5-(isoquinolin-6-yl)-1,3,4-oxadiazol-2-amine], for which the IC50 (commonly the concentration that inhibits the measured activity by half) is 0.05 to 1 µM.

In turn, `Cc1n[nH]c2ccc(-c3nnc(NC[C@@H](N)Cc4cccc(C(F)(F)F)c4)o3)cc12` [Example 2, N-((S)-2-amino-3-(3-(trifluoromethyl)phenyl)propyl)-5-(3-methyl-1H-indazol-5-yl)-1,3,4-oxadiazol-2-amine] showed an IC50 of 1 to 10 µM.

As to `N[C@H](CCc1nc(-c2ccc3cnccc3c2)no1)Cc1ccc(C(F)(F)F)cc1` [Example 3, (2R)-4-(3-(Isoquinolin-6-yl)-1,2,4-oxadiazol-5-yl)-1-(4-(trifluoromethyl)phenyl)butan-2-amine], the IC50 is 1 to 10 µM.

In turn, `N[C@@H](Cc1ccc(C(F)(F)F)cc1)Cc1nc(-c2ccc3cnccc3c2)no1` [Example 4, (2S)-1-(3-(Isoquinolin-6-yl)-1,2,4-oxadiazol-5-yl)-3-(4-(trifluoromethyl)phenyl)propan-2-amine] displayed an IC50 of 1 to 10 µM.

On to `N[C@@H](Cc1ccc(C(F)(F)F)cc1)c1nc(-c2ccc3cnccc3c2)no1` [Example 5, (1S)-1-(3-(Isoquinolin-6-yl)-1,2,4-oxadiazol-5-yl)-2-(4-(trifluoromethyl)phenyl)ethanamine], for which the IC50 lay in the range of 1 to 10 µM.

As for `COc1ccc(CNc2ncc(-c3ccc4cnccc4c3)o2)cc1` [Example 6, N-(4-Methoxybenzyl)-5-(isoquinolin-6-yl)oxazol-2-amine], the IC50 lay within 1 to 10 µM.

Compound `COc1ccc(CNc2ncc(-c3ccccc3)o2)cc1` [Example 7, N-(4-Methoxybenzyl)-5-phenyloxazol-2-amine] had an IC50 of 1 to 10 µM.

`COc1ccc(CNc2ncc(-c3ccncc3)o2)cc1` [Example 8, N-(4-Methoxybenzyl)-5-(pyridin-4-yl)oxazol-2-amine] had an IC50 of 1 to 10 µM.

`Cc1n[nH]c2ccc(-c3cnc(NC[C@@H](N)Cc4ccc(C(F)(F)F)cc4)o3)cc12` [Example 9, N-((S)-2-Amino-3-(4-(trifluoromethyl)phenyl)propyl)-5-(3-methyl-1H-indazol-5-yl)oxazol-2-amine] registered an IC50 of 0.05 to 1 µM.

On to `Cc1n[nH]c2ccc(-c3cnc(NCc4ccccc4)o3)cc12` [Example 10, N-Benzyl-5-(3-methyl-1H-indazol-5-yl)oxazol-2-amine], for which the IC50 is 1 to 10 µM.

Take `N[C@H](CNc1cc(-c2ccc3cnccc3c2)no1)Cc1ccc(Cl)cc1` [Example 11, N-((S)-2-Amino-3-(4-chlorophenyl)propyl)-3-(isoquinolin-6-yl)isoxazol-5-amine]: the 50% inhibitory concentration (IC50) was under 0.05 µM.

Regarding `N[C@H](CNc1cc(-c2ccc3cnccc3c2)no1)Cc1ccc(Br)cc1` [Example 12, N-((S)-2-Amino-3-(4-bromophenyl)propyl)-3-(isoquinolin-6-yl)isoxazol-5-amine], the IC50 is under 0.05 µM.

As for `N[C@H](CNc1cc(-c2ccc3cnccc3c2)no1)Cc1cccc(C(F)(F)F)c1` [Example 13, N-((S)-2-Amino-3-(3-(trifluoromethyl)phenyl)propyl)-3-(isoquinolin-6-yl)isoxazol-5-amine], the IC50 is under 0.05 µM.

With `N[C@H](CNc1cc(-c2ccc3cnccc3c2)no1)Cc1ccc(C(F)(F)F)cc1` [Example 14, N-((S)-2-Amino-3-(4-(trifluoromethyl)phenyl)propyl)-3-(isoquinolin-6-yl)isoxazol-5-amine], the IC50 is under 0.05 µM.

Turning to `N[C@H](CNc1cc(-c2ccc3cnccc3c2)no1)Cc1ccccc1` [Example 15, N-((S)-2-Amino-3-phenylpropyl)-3-(isoquinolin-6-yl)isoxazol-5-amine], the IC50 lay in the range of 0.05 to 1 µM.

`N[C@H](CNc1cc(-c2ccc3cnccc3c2)no1)Cc1cccc(Cl)c1` [Example 16, N-((S)-2-Amino-3-(3-chlorophenyl)propyl)-3-(isoquinolin-6-yl)isoxazol-5-amine]: the IC50 is under 0.05 µM.

With `Cc1c(-c2ccc3cnccc3c2)noc1NC[C@@H](N)Cc1ccccc1` [Example 17, N-((S)-2-Amino-3-phenylpropyl)-3-(isoquinolin-6-yl)-4-methylisoxazol-5-amine], the half-maximal inhibitory concentration (IC50) is 1 to 10 µM.

For the compound `N[C@H](CNc1cc(-c2ccc3cnccc3c2)no1)Cc1ccccc1Cl` [Example 18, N-((S)-2-Amino-3-(2-chlorophenyl)propyl)-3-(isoquinolin-6-yl)isoxazol-5-amine], the IC50 lay within 0.05 to 1 µM.

The compound `N[C@H](CNc1cc(-c2ccc3cnccc3c2)no1)Cc1ccc2ccccc2c1` [Example 19, N-((S)-2-Amino-3-(naphthalen-2-yl)propyl)-3-(isoquinolin-6-yl)isoxazol-5-amine] displayed an IC50 of 0.05 to 1 µM.

Compound `N[C@H](CNc1cc(-c2ccc3cnccc3c2)on1)Cc1ccc(C(F)(F)F)cc1` [Example 20, N-((S)-2-Amino-3-(4-(trifluoromethyl)phenyl)propyl)-5-(isoquinolin-6-yl)isoxazol-3-amine] came in with a half-maximal inhibitory concentration (IC50) of 0.05 to 1 µM.

In the case of `N[C@H](CNc1cc(-c2ccc3cnccc3c2)on1)Cc1cccc(Cl)c1` [Example 21, N-((S)-2-Amino-3-(3-chlorophenyl)propyl)-5-(isoquinolin-6-yl)isoxazol-3-amine], the IC50 was in the range of 0.05 to 1 µM.

The compound `N[C@H](CNc1cc(-c2ccc3cnccc3c2)on1)Cc1ccc(Cl)cc1` [Example 22, N-((S)-2-Amino-3-(4-chlorophenyl)propyl)-5-(isoquinolin-6-yl)isoxazol-3-amine] showed an IC50 of 0.05 to 1 µM.

`N[C@H](CCc1cc(-c2ccc3cnccc3c2)no1)Cc1ccccc1` [Example 23, (2R)-4-(3-(isoquinolin-6-yl)isoxazol-5-yl)-1-phenylbutan-2-amine] returned a half-maximal inhibitory concentration (IC50) of 1 to 10 µM.

In the case of `N[C@H](CCc1cc(-c2ccc3cnccc3c2)no1)Cc1ccc(C(F)(F)F)cc1` [Example 24, (2R)-4-(3-(Isoquinolin-6-yl)isoxazol-5-yl)-1-(4-(trifluoromethyl)phenyl)butan-2-amine], the IC50 was under 0.05 µM.

Regarding `N[C@H](CCc1cc(-c2ccc3cnccc3c2)no1)Cc1ccc(Cl)cc1` [Example 25, (2R)-1-(4-Chlorophenyl)-4-(3-(isoquinolin-6-yl)isoxazol-5-yl)butan-2-amine], the IC50 was in the range of 0.05 to 1 µM.

Compound `N[C@H](CCc1cc(-c2ccc3cnccc3c2)no1)Cc1cccc(Cl)c1` [Example 26, (2R)-1-(3-chlorophenyl)-4-(3-(isoquinolin-6-yl)isoxazol-5-yl)butan-2-amine] showed an IC50 of 0.05 to 1 µM.

In the case of `N[C@H](CCc1cc(-c2ccc3cnccc3c2)no1)Cc1ccccc1Cl` [Example 27, (2R)-1-(2-chlorophenyl)-4-(3-(isoquinolin-6-yl)isoxazol-5-yl)butan-2-amine], the IC50 lay in the range of 1 to 10 µM.

`N[C@@H](CCc1cc(-c2ccc3cnccc3c2)no1)Cc1ccc(C(F)(F)F)cc1` [Example 28, (2S)-4-(3-(Isoquinolin-6-yl)isoxazol-5-yl)-1-(4-(trifluoromethyl)phenyl)butan-2-amine] gave an IC50 of 0.05 to 1 µM.

As for `N[C@H](CCc1cc(-c2ccc3cnccc3c2)no1)Cc1cccc(C(F)(F)F)c1` [Example 29, (2R)-4-(3-(Isoquinolin-6-yl)isoxazol-5-yl)-1-(3-(trifluoromethyl)phenyl)butan-2-amine], the half-inhibitory concentration (IC50) lay within 0.05 to 1 µM.

Compound `N[C@H](CCc1cc(-c2ccc3cnccc3c2)no1)Cc1ccc(Cl)cc1Cl` [Example 30, (2R)-1-(2,4-Dichlorophenyl)-4-(3-(isoquinolin-6-yl)isoxazol-5-yl)butan-2-amine] came in with a half-maximal inhibitory concentration (IC50) of 0.05 to 1 µM.

The compound `N[C@H](CNc1onc(-c2ccc3cnccc3c2)c1Cc1ccccc1)Cc1ccccc1` [Example 31, N-((S)-2-amino-3-phenylpropyl)-4-benzyl-3-(isoquinolin-6-yl)isoxazol-5-amine] displayed an IC50 of 1 to 10 µM.

Compound `N[C@H](CNc1cc(-c2ccc3cnccc3c2)no1)Cc1c[nH]c2ccccc12` [Example 32, N-((S)-2-amino-3-(1H-indol-3-yl)propyl)-3-(isoquinolin-6-yl)isoxazol-5-amine] registered an IC50 of 0.05 to 1 µM.

The compound `N[C@H](CNc1onc(-c2ccc3cnccc3c2)c1Cc1ccccc1)Cc1c[nH]c2ccccc12` [Example 33, N-((S)-2-Amino-3-(1H-indol-3-yl)propyl)-4-benzyl-3-(isoquinolin-6-yl)isoxazol-5-amine] registered an IC50 of 0.05 to 1 µM.

In the case of `CC(C)Cc1c(-c2ccc3cnccc3c2)noc1NC[C@@H](N)Cc1c[nH]c2ccccc12` [Example 34, N-((S)-2-Amino-3-(1H-indol-3-yl)propyl)-4-isobutyl-3-(isoquinolin-6-yl)isoxazol-5-amine], the half-maximal inhibitory concentration (IC50) was in the range of 1 to 10 µM.

With `NCCc1c(-c2ccc3cnccc3c2)noc1NC[C@@H](N)Cc1c[nH]c2ccccc12` [Example 35, N-((S)-2-Amino-3-(1H-indol-3-yl)propyl)-4-(2-aminoethyl)-3-(isoquinolin-6-yl)isoxazol-5-amine], the IC50 fell in the range of 1 to 10 µM.

For `NCCNc1onc(-c2ccc3cnccc3c2)c1Cc1ccccc1` [Example 36, N-(2-Aminoethyl)-4-benzyl-3-(isoquinolin-6-yl)isoxazol-5-amine], the IC50 was 1 to 10 µM.

With `N[C@H](CCn1cc(-c2ccc3[nH]ncc3c2)nn1)Cc1ccc(C(F)(F)F)cc1` [Example 37, (2S)-4-(4-(1H-Indazol-5-yl)-1H-1,2,3-triazol-1-yl)-1-(4-(trifluoromethyl)phenyl)butan-2-amine], the IC50 lay within 0.05 to 1 µM.

For the compound `Cc1n[nH]c2ccc(-c3cn(CC[C@@H](N)Cc4ccc(C(F)(F)F)cc4)nn3)cc12` [Example 38, (2S)-4-(4-(3-Methyl-1H-indazol-5-yl)-1H-1,2,3-triazol-1-yl)-1-(4-(trifluoromethyl)phenyl)butan-2-amine], the IC50 was in the range of 0.05 to 1 µM.
